Data from patent publication US9993459B2, “Selective HDAC6 inhibitors and uses thereof” (Universiteit Gent, priority 2015, dated 2018).

Assays:
NF-κβ = assay: NF-κβ-dependent luciferase reporter p(IL6kB)350hu.IL6P-luc in TNF-activated A549 cells; type: cell-based; conditions: TNF-activated A549, 1 μM or 10 μM
Experimental: (§1) FIG. 2: A549 cells with the stably integrated recombinant reporter gene p(GRE)2-50-luc (A) were pre-incubated with respective solvents, the selective Glucocorticoid Receptor modulator CpdA (10 μM), 7a, (1 μM or 10 μM), 7b (1 μM or 10 μM), 13a (1 μM or 10 μM) for 1 h after which the synthetic glucocorticoid dexamethasone (DEX,1 μM) was added, where indicated, for 5 h. A549 cells with the stably integrated recombinant reporter gene p(IL6kB)350hu.IL6P-luc (B) or Collagenase-luc (C) were pre-incubated with respective solvents, DEX (1 μM), CpdA (10 μM), 7a, (1 μM or 10 μM), 7b (1 μM or 10 μM), 13a (1 μM or 10 μM) for 1 h after which TNF (2000 units/ml) or PMA (20 nM) were added, where indicated, for 5 h. Cell lysates were assayed for luciferase activities. Promoter activities are expressed as relative induction factor calculated as percentage of maximal DEX (A), TNF (B) or PMA (C) responses. […] Assays were performed in triplicate, and results are averages of at least three independent experiments and shown ±S.D. ****p<0.0001; ***p<0.001; **p<0.01; *p<0.05. Statistical significance was determined on the averaged results, and analysis performed using one-way ANOVA tests followed by a Tukey multiple comparison post test. […]

AP-1 = assay: AP1-dependent luciferase reporter pCollagenase-luc in PMA-treated A549 cells; type: cell-based; conditions: A549, 10 μM
Experimental: as §1

Compound: O=C(NO)c1ccc(NCc2csc3ccccc23)cc1 [Compound 7a, 3-[(4-hydroxycarbamoylphenyl)aminomethyl]benzothiophene]
- block of the activity of NF-κβ (NF-κβ): not able to block the activity of NF-κβ
- melting point: 191 °C

Compound: O=C(NO)c1ccc(NCc2csc3ccc(Br)cc23)cc1 [Compound 7b, 5-bromo-3-[(4-hydroxycarbamoylphenyl)aminomethyl]-benzothiophene]
- AP1-dependent promoter activity as compared to solvent control (DMSO) (AP-1): clearly induced the AP1-dependent promoter activity
- block of the activity of NF-κβ (NF-κβ): not able to block the activity of NF-κβ

Compound: O=C(NO)c1ccc(NCc2csc3cc(Br)ccc23)cc1 [Compound 13a, 6-bromo-3-[(4-hydroxycarbamoylphenyl)aminomethyl]-benzothiophene]
- melting point: 179.5 °C
